Like-named read-outs stand apart in the source and are kept apart here.
Assays:
[1] = test system: P388/0 (murine lymphoid neoplasm) cells; experiment: cells; assay type: cell-based; conditions: read-out: IC50 (nM) P388
Method: (§1) In this example, a series of in vitro assays were conducted to determine the IC50 for unmodified camptothecin, unmodified paclitaxel and several of the high molecular weight prodrugs prepared as set forth above.
(§2) All compounds were independently tested against one or more of the P388/0 (murine lymphoid neoplasm, Southern Research Institute), HT-29 (human colon carcinoma) and A549 (human lung adeno carcinoma) cell lines.
(§3) The P388/0 cells were grown in RPMI 1640 medium (Whittaker Bioproducts, Walkersville, Md.)+10% FBS (Hyclone Inc., Logan Utah). The HT-29 cells were grown in DMEM (GIBCOBRL)+10% FBS (Hyclone, Inc.). The A549 cells were grown in DMEM/F-12 (Biowhitaker)+10% FBS (Heat inactivated). Bioassays were performed in their respective media containing antibiotics and fungizone.
(§4) Camptothecin and paclitaxel were dissolved in DMSO and diluted to the appropriate concentration in culture media. The PEG-Camptothecin and PEG-paclitaxel prodrugs were dissolved in water and diluted to the appropriate concentrations in culture media.
(§5) The assays were performed in duplicate in 96-well microtiter cell culture plates. Two fold serial dilution of the compounds were done in the microtiter plates. Cells were detached by incubating with 0.1% Trypsin/Versene at 37°. Trypsin was inactivated by adding the appropriate media for each cell line containing 10% FBS. To each well of the microtiter plates, 10,000 cells were added. After three days, cell growth was measured by addition of a metabolic indicator dye, Alamar Blue, according to the manufacturer's protocol. The IC50 value for each test compound was determined and compared to the IC50 for the appropriate reference compound.
P-388 Murine leukemia cell line

[2] = test system: HT-29 (human colon carcinoma) cells; experiment: cells; assay type: cell-based; conditions: read-out: IC50 (nM) HT-29
Method: as §1, §2, §3, §4, §5
HT29 Human colon carcinoma cell line

[3] = test system: one or more of the P388/0, HT-29 and A549 cell lines; experiment: cells; assay type: cell-based
Method: as §1, §2, §3, §4, §5
The IC50 values for some of the compounds formed in examples 47-53 were determined using the same process as that described above with regard to example 45 and compared to native camptothecin.

[4] = test system: murine leukemia cell line P388/0; experiment: Murine Leukemia Model (In vivo P388); parameters: species or system mouse; conditions: ip, days 1-5; for Survival Rate %: survival at 40 days
Method: (§6) In this Example, the in vivo activity of some of the compounds prepared in accordance with the present invention was assessed using the Murine Leukemia Model and the Colorectal Xenograft model.
The compounds shown in the Table below were screened for in vivo activity against the murine leukemia cell line P388/0 (mouse, lymphoid neoplasm). The cell line was obtained from Southern Research Institute (Birmingham, Ala.) and grown in RPMI 1640 supplemented with 10% FBS. P388/0 cells were subcultured two times per week and log phase cultures (viability ≥95%/o) were used for all in vivo experiments. Female CD2F1 mice (Taconic Farms, Germantown, N.Y.) at 7-8 weeks of age were used for study. Following one week of acclimation, mice were implanted ip with P388/0 cells (5×10^5 cells/mouse) at designated day 0 (zero). The mice were randomly assigned to experimental groups (10-20 per group). The groups included Control groups and several which received one of the drugs or prodrugs. The mice were then dosed (500 μL, ip) for 5 consecutive days (days 1-5). Control groups received vehicle (intralipid or water). The mice were monitored for up to 40 days, and the treatment was evaluated and expressed as the percentage survival at 40 days.

[5] = Colorectal Xenograft (In vivo HT-29); parameters: species or system human tumor in nu/nu mice; conditions: mouse, in vivo, ip; week 5 (end of treatment); total active dose 62.5 mg/kg
Method: as §6
(§7) Female nu/nu mice (Harlan Sprague Dawley, Madison, Wis.), 18-24 g and 10-14 weeks old, at onset of treatment were used. The solid tumor HT-29 (human, colon adenocarcinoma) was obtained from the ATCC (HTB 38) and grown in DMEM supplemented with 10% FBS. Cells were subcultured once a week and for in vivo experiments viabilities were ≥90%. Mice were housed in microisolator filtration racks, and maintained with filtered acidified water and sterile laboratory chow ad libitum. Following one week of acclimation, tumors were established by injecting 1×10^6 harvested HT-29 tumor cells in a single subcutaneous site, on the flank of mice in the left axillary region. The tumor injection site was observed twice weekly and measured once palpable. The tumor volume for each mouse was determined by measuring two dimensions with calipers and calculated using the formula: tumor volume=(length×width^2)/2. When tumors reached the average volume of 300 mm^3, the mice were divided into their experimental groups. The non-Control groups received Camptothecin 2.5 mg/kg/day, the prodrugs being dosed on the basis of camptothecin content. The mice were sorted to evenly distribute tumor size, grouped into 5 mice/cage, and ear punched for permanent identification. Mice receiving drugs were treated i.p. 5 times a week, Monday through Friday for 5 weeks with 500 μL of test article. Mouse weight and tumor size were measured at the beginning of study and weekly through week 7. The overall growth of tumors was expressed as the percent change in tumor size calculated by subtracting mean initial tumor volume from mean tumor volume at the end of the treatment and dividing by mean initial tumor volume.

[6] = test system: solid tumor HT-29 (human, colon adenocarcinoma); experiment: Colorectal Xenograft (In vivo HT-29); parameters: species or system human tumor in nu/nu mice; conditions: total active dose 62.5 mg/kg, i.p.
Method: as §6, §7

[7] = cell line not stated, same process as example 45, read-out: IC50

Which IC50 ([1]; Mus musculus, P388, 72 h) does the source give for `CC[C@@]1(O)C(=O)OCc2c1cc1n(c2=O)Cc2cc3ccccc3nc2-1` [Camptothecin, reference compound] here?
The IC50 was 5 nM.

What about the IC50 ([2]; Homo sapiens, HT-29, 72 h) of the same compound?
Its IC50 is 21 nM.

And the IC50 [3]?
Its IC50 is 7 nM.

And the “Survival Rate %” value ([4]; total active dose 16 mg/kg)?
The value was 80%.

And the mortality at 840 h [5]?
The mortality at 840 h was 50%.

And the “Body weight change (%)” value ([6]; week 5 (end of treatment))?
Its value is -3%.

What about the “Tumor growth (%)” value ([6]; week 5 (end of treatment)) of the same compound?
The value was -20%.

What about the “Body weight change (%)” value ([6]; week 7 (2 week post treatment)) of the same compound?
The value was -3%.

What about the “Tumor growth (%)” value ([6]; week 7 (2 week post treatment)) of the same compound?
Its value is 62%.

With `CC[C@@]1(OC(=O)n2ccnc2)C(=O)OCc2c1cc1n(c2=O)Cc2cc3ccccc3nc2-1` [Compound 54, camptothecin-20-O-carbonylimidazolyl carbonate] as the compound, how does the IC50 ([3]; read-out: IC50) read?
Its IC50 is 69 nM.

Which IC50 [3, 7] does the source give for `CC[C@@]1(OC(=O)Oc2ccc([N+](=O)[O-])cc2)C(=O)OCc2c1cc1n(c2=O)Cc2cc3ccccc3nc2-1` [Compound 55, camptothecin-20-O-paranitrophenyl carbonate] here?
Its IC50 is 365 nM.

With `CC[C@@]1(OC(=O)ON2C(=O)CCC2=O)C(=O)OCc2c1cc1n(c2=O)Cc2cc3ccccc3nc2-1` [Compound 56, camptothecin-20-O-N-hydroxysuccinimidyl carbonate] as the compound, how does the IC50 [3, 7] read?
Its IC50 is 1030 nM.

For `CC[C@@]1(OC(=O)OC)C(=O)OCc2c1cc1n(c2=O)Cc2cc3ccccc3nc2-1` [Compound 59, camptothecin-20-O-methyl carbonate], which IC50 [3, 7] is on record?
Its IC50 is 11 nM.

Which IC50 ([3]; read-out: IC50) does the source give for `CC[C@@]1(OC(=O)OCC(C)C)C(=O)OCc2c1cc1n(c2=O)Cc2cc3ccccc3nc2-1` [Compound 60, camptothecin-20-O-isobutyryl carbonate] here?
The IC50 was 29 nM.

For `CC[C@@]1(O)C(=O)OCc2c1cc1n(c2=O)Cc2cc3c(CN(C)C)c(O)ccc3nc2-1` [Topotecan, reference compound], which IC50 ([1]; Mus musculus, 72 h, P388 murine leukemia cell line, three days) is on record?
The IC50 was 29 nM.

And the IC50 ([2]; 72 h, HT-29 human colon carcinoma cell line, three days)?
The IC50 was 99 nM.

What does the source list for “Bis-Camptothecin-N-Acetyl-PEG40kDa -20-O-Glycinate [Compound 37b]”?
IC50 [1]: 49 nM; IC50 [2]: 137 nM

Which results are given for “Bis-Camptothecin-N-PEG40kDa -20-O-Glycinate [Compound 37a]”?
IC50 [1]: 24 nM; IC50 [2]: 110 nM

With “Camptothecin-20-O-Glycinate PEG40kDa -Amide Derivative [Compound 48]” as the compound, how does the “Survival Rate %” value ([4]; total active dose 16 mg/kg) read?
The value was 80%.

And the “Tumor growth (%)” value ([6]; week 5 (end of treatment))?
The value was -80%.

What about the “Tumor growth (%)” value ([6]; week 7 (2 week post treatment)) of the same compound?
Its value is -96%.

Which results are given for “Camptothecin-20-O-Glycinate PEG40kDa Carbamate Derivative [Compound 49]”?
IC50 [1]: 33 nM; IC50 [2]: 40 nM

With “Camptothecin-20-O-ester of 2-PEG40k N-methylcarbamoyl Acetic Acid [Compound 5b]” as the compound, how does the IC50 [1] read?
Its IC50 is 18 nM.

And the IC50 [2]?
Its IC50 is 153 nM.

Which IC50 ([1]; P388 murine leukemia cell line, three days) does the source give for “Camptothecin-20-O-ester of 2-PEG40kDa Carbamoylacetic Acid [Compound 5a]” here?
Its IC50 is 7 nM.

And the IC50 ([2]; HT-29 human colon carcinoma cell line, three days)?
The IC50 was 30 nM.

Which results are given for “Camptothecin-20-O-ester of PEG20kDa diacid”?
50% survival ([4]; total active dose 11.4 mg/kg): 21 days; Survival Rate % ([4]; total active dose 11.4 mg/kg): 10%

Which IC50 [3, 7] does the source give for “camptothecin-20-O-PEG5kDa carbamate [Compound 57]” here?
The IC50 was 912 nM.

Reference: patent US6127355A (priority 1999, dated 2000)
